Experimental findings from BindingDB's records for doi:10.1016/s0960-894x(98)00240-6 (Boehringer Ingelheim (Canada), 1999) are described below.

Some results are limits rather than exact numbers.

The IC50 is the concentration that inhibits the measured activity by half. Higher therefore signals a need for much substance.

The nature of the assay: Inhibitory activity against porcine pancreatic elastase(PPE).

On to `O=C1CC(SCc2ccccn2)N1C(=O)N[C@H](CO)c1ccccc1` (stereo partly drawn) [2-Oxo-4-(pyridin-2-ylmethylsulfanyl)-azetidine-1-carboxylic acid ((S)-2-hydroxy-1-phenyl-ethyl)-amide], for which the half-maximal inhibitory concentration (IC50) was greater than 75 µM.
As to `C[C@@H](NC(=O)N1C(=O)CC1SCc1cccnc1)c1ccccc1` (stereo partly drawn) [2-Oxo-4-(pyridin-3-ylmethylsulfanyl)-azetidine-1-carboxylic acid ((R)-1-phenyl-ethyl)-amide], the half-inhibitory concentration (IC50) was 65 µM.
Next, `CC(C)C[C@@H](COC1CC(=O)N1C(=O)NCc1ccccc1)NC(=O)[C@@H](NC(=O)OC(C)(C)C)C(C)(C)C` (stereo partly drawn) [{(S)-1-[(S)-1-(1-Benzylcarbamoyl-4-oxo-azetidin-2-yloxymethyl)-3-methyl-butylcarbamoyl]-2,2-dimethyl-propyl}-carbamic acid tert-butyl ester]: greater than 75 µM.
`CC[C@@H](NC(=O)N1C(=O)[C@@H](C)[C@@H]1SCc1ccccn1)c1ccccc1` [(3R,4S)-3-Methyl-2-oxo-4-(pyridin-2-ylmethylsulfanyl)-azetidine-1-carboxylic acid ((R)-1-phenyl-propyl)-amide] registered an IC50 of 0.73 µM.
`C[C@@H](NC(=O)N1C(=O)CC1SCc1ccncc1)c1ccccc1` (stereo partly drawn) [2-Oxo-4-(pyridin-4-ylmethylsulfanyl)-azetidine-1-carboxylic acid ((R)-1-phenyl-ethyl)-amide] showed a concentration for half-maximal inhibition (IC50) of 21 µM.
